Experimental data taken from publication PMC12527922, “Cocaine chemogenetics blunts drug-seeking by synthetic physiology” (Nature, 2025).
Where “and” joins values, the source holds several entries; their conditions need not be identical. Identical values can stand only once.

What was measured:
Test in all cases: Membrane potential assay screen, mutant α7–GlyR chimeric channels
Format in all cases: cell-based
[1] = biological target: α7–GlyR mutant chimeric channels (Homo sapiens, UniProt P36544, L131M); settings: EC50 at α7 GlyR L131M, sheet 1d
α7–GlyR mutant chimeric channels (Homo sapiens, UniProt P36544, L131M), sequence (P36544 23-229 L131M): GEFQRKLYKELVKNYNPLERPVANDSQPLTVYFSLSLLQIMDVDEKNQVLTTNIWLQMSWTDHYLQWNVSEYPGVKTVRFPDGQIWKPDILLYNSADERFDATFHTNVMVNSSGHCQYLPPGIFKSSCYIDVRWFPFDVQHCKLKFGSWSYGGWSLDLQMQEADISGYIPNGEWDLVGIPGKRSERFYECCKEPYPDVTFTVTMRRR
α7–GlyR mutant chimeric channels (Homo sapiens, UniProt P36544, L131M), sequence (P23415 247-457 partner): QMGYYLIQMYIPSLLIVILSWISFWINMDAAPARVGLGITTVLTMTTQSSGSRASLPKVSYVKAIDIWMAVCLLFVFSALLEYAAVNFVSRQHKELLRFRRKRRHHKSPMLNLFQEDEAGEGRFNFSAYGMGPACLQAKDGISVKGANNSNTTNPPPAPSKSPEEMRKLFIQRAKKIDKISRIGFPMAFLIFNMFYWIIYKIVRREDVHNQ

[2] = biological target: α7–GlyR mutant chimeric channels (Homo sapiens, UniProt P36544, Q79A); settings: EC50 at α7-GlyR Q79A, sheet 1d
α7–GlyR mutant chimeric channels (Homo sapiens, UniProt P36544, Q79A), sequence (P36544 23-230 Q79A): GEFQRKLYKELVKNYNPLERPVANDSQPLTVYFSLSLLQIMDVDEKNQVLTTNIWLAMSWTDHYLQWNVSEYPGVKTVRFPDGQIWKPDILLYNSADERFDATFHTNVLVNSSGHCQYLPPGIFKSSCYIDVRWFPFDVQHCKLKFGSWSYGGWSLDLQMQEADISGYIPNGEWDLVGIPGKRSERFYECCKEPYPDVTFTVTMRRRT
α7–GlyR mutant chimeric channels (Homo sapiens, UniProt P36544, Q79A), sequence (P23415 248-457 partner): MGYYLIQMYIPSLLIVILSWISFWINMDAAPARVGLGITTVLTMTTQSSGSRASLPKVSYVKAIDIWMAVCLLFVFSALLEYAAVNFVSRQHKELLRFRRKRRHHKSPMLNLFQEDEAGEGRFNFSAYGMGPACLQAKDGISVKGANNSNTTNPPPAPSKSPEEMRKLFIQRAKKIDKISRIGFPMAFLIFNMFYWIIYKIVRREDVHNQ

[3] = biological target: α7–GlyR mutant chimeric channels (Homo sapiens, UniProt P36544, L131N); settings: EC50 at α7 GlyR L131N, sheet 1d
α7–GlyR mutant chimeric channels (Homo sapiens, UniProt P36544, L131N), sequence (P36544 23-230 L131N): as the sequence (P36544 23-230 Q79A) above, with A57Q, L109N counted along it
α7–GlyR mutant chimeric channels (Homo sapiens, UniProt P36544, L131N), sequence (P23415 247-457 partner): as the sequence (P23415 247-457 partner) above

[4] = biological target: α7–GlyR mutant chimeric channels (Homo sapiens, UniProt P36544, Q79G); settings: EC50 at α7-GlyR Q79G, sheet 1d
α7–GlyR mutant chimeric channels (Homo sapiens, UniProt P36544, Q79G), sequence (P36544 23-230 Q79G): as the sequence (P36544 23-230 Q79A) above, with A57G counted along it
α7–GlyR mutant chimeric channels (Homo sapiens, UniProt P36544, Q79G), sequence (P23415 248-457 partner): as the sequence (P23415 248-457 partner) above

[5] = biological target: α7–GlyR mutant chimeric channels (Homo sapiens, UniProt P36544, L131Q); settings: EC50 at α7 GlyR L131Q, sheet 1d
α7–GlyR mutant chimeric channels (Homo sapiens, UniProt P36544, L131Q), sequence (P36544 23-230 L131Q): as the sequence (P36544 23-230 Q79A) above, with A57Q, L109Q counted along it
α7–GlyR mutant chimeric channels (Homo sapiens, UniProt P36544, L131Q), sequence (P23415 247-457 partner): as the sequence (P23415 247-457 partner) above

[6] = biological target: α7–GlyR mutant chimeric channels (Homo sapiens, UniProt P36544, L141G); settings: EC50 at α7 GlyR L141G, sheet 1d
α7–GlyR mutant chimeric channels (Homo sapiens, UniProt P36544, L141G), sequence (P36544 23-230 L141G): as the sequence (P36544 23-230 Q79A) above, with A57Q, L119G counted along it
α7–GlyR mutant chimeric channels (Homo sapiens, UniProt P36544, L141G), sequence (P23415 247-457 partner): as the sequence (P23415 247-457 partner) above

[7] = biological target: α7–GlyR mutant chimeric channels (Homo sapiens, UniProt P36544, Q79S); settings: EC50 at α7-GlyR Q79S, sheet 1d
α7–GlyR mutant chimeric channels (Homo sapiens, UniProt P36544, Q79S), sequence (P36544 23-230 Q79S): as the sequence (P36544 23-230 Q79A) above, with A57S counted along it
α7–GlyR mutant chimeric channels (Homo sapiens, UniProt P36544, Q79S), sequence (P23415 248-457 partner): as the sequence (P23415 248-457 partner) above

[8] = biological target: α7–GlyR mutant chimeric channels (Homo sapiens, UniProt P36544, P216V); settings: EC50 at α7 GlyR P216V, sheet 1d
α7–GlyR mutant chimeric channels (Homo sapiens, UniProt P36544, P216V), sequence (P36544 23-230 P216V): as the sequence (P36544 23-230 Q79A) above, with A57Q, P194V counted along it
α7–GlyR mutant chimeric channels (Homo sapiens, UniProt P36544, P216V), sequence (P23415 248-457 partner): as the sequence (P23415 248-457 partner) above

[9] = biological target: α7–GlyR mutant chimeric channels (Homo sapiens, UniProt P36544, L141A); settings: EC50 at α7 GlyR L141A, sheet 1d
α7–GlyR mutant chimeric channels (Homo sapiens, UniProt P36544, L141A), sequence (P36544 23-230 L141A): as the sequence (P36544 23-230 Q79A) above, with A57Q, L119A counted along it
α7–GlyR mutant chimeric channels (Homo sapiens, UniProt P36544, L141A), sequence (P23415 247-457 partner): as the sequence (P23415 247-457 partner) above

[10] = biological target: α7–GlyR mutant chimeric channels (Homo sapiens, UniProt P36544, L141P); settings: EC50 at α7 GlyR L141P, sheet 1d
α7–GlyR mutant chimeric channels (Homo sapiens, UniProt P36544, L141P), sequence (P36544 23-230 L141P): as the sequence (P36544 23-230 Q79A) above, with A57Q, L119P counted along it
α7–GlyR mutant chimeric channels (Homo sapiens, UniProt P36544, L141P), sequence (P23415 247-457 partner): as the sequence (P23415 247-457 partner) above

Structure (SMILES): COC(=O)[C@H]1[C@@H](OC(=O)c2ccccc2)C[C@@H]2CC[C@H]1N2C [cocaine]
- EC50 ([1]; Avg): > 30 µM
- EC50 ([1]; single determinations): > 30 µM
- EC50 ([2]; Avg): > 30 µM
- EC50 ([2]; single determinations): > 30 µM
- EC50 ([3]; Avg): 21 µM
- EC50 ([3]; single determinations): 12 µM and > 30 µM
- EC50 ([4]; Avg): > 30 µM
- EC50 ([4]; single determinations): > 30 µM
- EC50 ([5]; Avg): > 30 µM
- EC50 ([5]; single determinations): > 30 µM
- EC50 ([6]; Avg): 8.3 µM
- EC50 ([6]; single determinations): 5.6 µM and 11 µM
- EC50 ([7]; Avg): > 30 µM
- EC50 ([7]; single determinations): > 30 µM
- EC50 ([8]; Avg): > 30 µM
- EC50 ([8]; single determinations): > 30 µM
- EC50 ([9]; Avg): 5 µM
- EC50 ([9]; single determinations): 6.7 µM and 3.3 µM
- EC50 ([10]; Avg): > 30 µM
- EC50 ([10]; single determinations): > 30 µM
